Reference: patent US9789096B2, “Methods and compositions for selective and targeted cancer therapy” (Board of Regents of the University of Texas System, priority 2013, dated 2017)

Experiments:
HCC4017 [1] = assay: Cell viability dose-response, HCC4017; format: cell-based, human; conditions: Homo sapiens, HCC4017, 12-point dose-response starting at 50 micromolar, 3-fold increments, in duplicate; read-out: toxicity data, HCC4017
Summary of the method: (§1)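 Cells at 15% confluence in RPMI-1640 with 5% FBS and 2 mM L-glutamine were exposed to compound for 4 days. Viability was measured as ATP by CellTiter-Glo. Dose-responses used 12 points from 50 micromolar in 3-fold steps, in duplicate; IC50 from dose-response curves.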

H1993 = assay: Cell viability dose-response, H1993; format: cell-based; conditions: Homo sapiens, NCI-H1993; 12-point dose-response starting at 50 micromolar, 3-fold increments, in duplicate; read-out: toxicity data, H1993
Summary of the method: as §1

HCC366 = assay: Cell viability dose-response, HCC366; format: cell-based; conditions: Homo sapiens, 12-point dose-response starting at 50 micromolar, 3-fold increments, in duplicate, read-out: toxicity data, HCC366
Experimental: FIG. 6A. […] Cell viability is plotted vs. compound concentration. Compound was added to cells plated at 15% confluence in 96-well plates in RPMI-1640 media supplemented with 5% Fetal Bovine Serum and 2 mM L-Glutamine. After 4 days of incubation, ATP levels were measured using Cell Titer Glo (Promega). Data are presented as the average of 2 replicates ±SEM.
Selectivity may be measured by the half maximal inhibitory concentration (IC50), which, as used herein, is a measure of the effectiveness of a compound in killing cells. This quantitative measure indicates how much of a particular compound is needed to kill a particular cell population by half (e.g., as indicated by the amount of ATP). […] The IC50 can be determined by constructing a dose-response curve. The lower the IC50, the higher the potency, and the greater the difference between IC50 values for different cell lines (e.g., sensitive lines vs. insensitive lines, and sensitive lines vs. normal lines) the greater the selectivity. […]
With this information, we synthesized and tested a series of small molecules derived in conception from the oxalamide and chromone scaffold including N-acyl ureas, as shown in Tables 6-8. Each compound was tested in a 12-point dose-response study starting at 50 micromolar and decreasing in 3-fold increments to sub-nanomolar concentrations, in duplicate. Additionally, one or more additional cell line was tested in the same way.

HBEC30KT = assay: Cell viability (ATP, Cell Titer Glo, 4 days), HBEC30KT; format: cell-based, human; conditions: Homo sapiens, 12-point dose-response starting at 50 micromolar, 3-fold increments, in duplicate; read-out: toxicity data, HBEC30KT
HCC44 = assay: Cell viability dose-response, HCC44; format: cell-based, human; conditions: Homo sapiens, HCC44, 12-point dose-response starting at 50 micromolar, 3-fold increments, in duplicate; read-out: toxicity data, HCC44
Summary of the method: as §1

H2009 = assay: Cell viability dose-response, H2009; format: cell-based, human; conditions: Homo sapiens, NCI-H2009; 12-point dose-response starting at 50 micromolar, 3-fold increments, in duplicate; read-out: toxicity data, H2009
Summary of the method: as §1

H1819 = assay: Cell viability dose-response, H1819; format: cell-based, human; conditions: Homo sapiens, NCI-H1819, 12-point dose-response starting at 50 micromolar, 3-fold increments, in duplicate; read-out: toxicity data, H1819
Summary of the method: (§2)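 Viability read as total ATP (Cell Titer Glo) following 4 days' compound exposure, with IC50 derived from dose-response curves. Duplicate 12-point series, top concentration 50 micromolar with 3-fold steps, on cells seeded at 15% confluence in RPMI-1640, 5% FBS, 2 mM L-glutamine.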

H460 = assay: Cell viability dose-response, H460; format: cell-based; conditions: Homo sapiens, NCI-H460; 12-point dose-response starting at 50 micromolar, 3-fold increments, in duplicate; read-out: toxicity data, H460
Summary of the method: as §1

HCC95 = assay: Cell viability dose-response, HCC95; format: cell-based; conditions: Homo sapiens, 12-point dose-response starting at 50 micromolar, 3-fold increments, in duplicate, read-out: toxicity data, HCC95
Summary of the method: as §1

HCC4017 [2] = assay: Metabolism by insensitive cells (HPLC/MS/MS); format: in vitro ADME, human
Experimental: (§3) FIGS. 9A-9D. Selective toxins selectively cross-link to SCD1 in sensitive cells and are selectively metabolized in sensitive cells. FIG. 9A. 12 NSCLC cell lines were incubated with SW208108 and processed as described in FIG. 7. […] FIG. 9B. […] FIG. 9C. […] Demethylation is the anticipated mode of metabolism. FIG. 9D. A representative benzothiazole is demethylated by sensitive cell lines. […] Values in FIGS. 9C and 9D were obtained by tandem HPLC/MS/MS.
(§4) In this context, 12 different NSCLC cell lines were treated with SW208108, lysed and clicked to a dye as previously described. […] To understand how SW208108 could selectively cross-link to SCD1 within some cell lines that expressed the enzyme but not other cell lines that expressed the same enzyme, we investigated the stability of a representative oxalamide in the presence of a sensitive and insensitive cell line. […] Similarly, a representative benzothiazole was metabolized by H2122 cells through, at least in part, the loss of the O-methyl group (FIG. 9D).

H2122 cells = assay: Metabolism by sensitive cells (HPLC/MS/MS); format: in vitro ADME, human
Experimental: as §3, §4

H2073 = assay: Cell viability dose-response, H2073; format: cell-based, human; conditions: Homo sapiens, NCI-H2073, 12-point dose-response starting at 50 micromolar, 3-fold increments, in duplicate; read-out: toxicity data, H2073
Summary of the method: as §1

H1155 = assay: Cell viability dose-response, H1155; format: cell-based; conditions: Homo sapiens, NCI-H1155; 12-point dose-response starting at 50 micromolar, 3-fold increments, in duplicate; read-out: toxicity data, H1155
Summary of the method: as §1

H2122 = assay: Cell viability dose-response, H2122; format: cell-based, human; conditions: Homo sapiens, NCI-H2122, 12-point dose-response starting at 50 micromolar, 3-fold increments, in duplicate; read-out: toxicity data, H2122
Summary of the method: as §2

H1395 = assay: Cell viability dose-response, H1395; format: cell-based; conditions: Homo sapiens, NCI-H1395; 12-point dose-response starting at 50 micromolar, 3-fold increments, in duplicate; read-out: toxicity data, H1395
Summary of the method: as §1

SMILES: COc1ccc(CCNC(=O)C(=O)Nc2cccc(Cl)c2)cc1 [SW027950]
- IC50 (HCC4017 [1]): ≥ 50 µM
- IC50 (H1993): 50 µM
- IC50 (HCC366): 50 µM
- IC50 (HBEC30KT): 34 µM
- IC50 (HCC44): 34 µM
- IC50 (H2009): 20.3 µM
- IC50 (H1819): ≥ 50 µM
- IC50 (H460): 3.9 µM
- IC50 (HCC95): 0.35 µM
- stability in the presence of an insensitive cell line (HCC4017 [2]): completely stable
- metabolism by sensitive H2122 cells (H2122 cells): metabolized
- IC50 (H2073): 1.4 µM
- IC50 (H1155): 50 µM
- IC50 (H2122): 0.35 µM
- IC50 (H1395): 50 µM
